Assay results taken from ChEMBL document CHEMBL5360672, “Identification of Novel Dual-Target Estrogen Receptor α Degraders with Tubulin Inhibitory Activity for the Treatment of Endocrine-Resistant Breast Cancer” (J Med Chem, 2023).

biological target: T1, Estrogen receptor (Homo sapiens) (UniProt P03372); assay: Binding affinity to human ERalpha assessed as relative binding affinity incubated under vibration for 1 min followed by 2 hrs incubation under dark condition by fluorescence polarization assay relative to estradiol; conditions: time 121.0 min
T1 sequence (whole entry): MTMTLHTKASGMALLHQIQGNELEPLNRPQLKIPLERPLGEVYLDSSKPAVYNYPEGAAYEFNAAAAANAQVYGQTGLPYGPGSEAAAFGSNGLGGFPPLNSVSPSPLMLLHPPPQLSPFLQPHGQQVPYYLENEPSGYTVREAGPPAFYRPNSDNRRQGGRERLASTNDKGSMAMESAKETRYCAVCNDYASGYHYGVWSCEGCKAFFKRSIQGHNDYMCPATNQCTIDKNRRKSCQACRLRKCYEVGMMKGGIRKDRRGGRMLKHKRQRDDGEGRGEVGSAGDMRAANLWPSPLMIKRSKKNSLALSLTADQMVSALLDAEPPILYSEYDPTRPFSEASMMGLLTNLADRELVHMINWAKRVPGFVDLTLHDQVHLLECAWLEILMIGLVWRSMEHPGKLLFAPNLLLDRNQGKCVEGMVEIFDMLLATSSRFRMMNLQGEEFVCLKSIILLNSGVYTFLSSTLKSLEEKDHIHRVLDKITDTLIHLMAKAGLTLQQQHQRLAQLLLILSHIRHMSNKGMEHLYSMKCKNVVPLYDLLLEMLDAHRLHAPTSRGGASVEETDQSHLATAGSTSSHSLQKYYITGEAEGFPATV

Q: For Cc1ccccc1OS(=O)(=O)C1CC2OC1C(c1ccc(NC(=O)CCCCC[Se]C#N)cc1)=C2c1ccc(O)cc1 (configuration not stated), which RBA is on record?
A: 14.1%

Q: With N#C[Se]CCCCCC(=O)Nc1ccc(C2=C(c3ccc(O)cc3)C3CC(S(=O)(=O)Oc4cccc(C(F)(F)F)c4)C2O3)cc1 (configuration not stated) as the molecule, how does the RBA read?
A: 0.17%

Q: For N#C[Se]CCCCCC(=O)Nc1ccc(C2=C(c3ccc(O)cc3)C3CC(S(=O)(=O)Oc4cccc5ccccc45)C2O3)cc1 (configuration not stated), which RBA is on record?
A: 15.5%

Q: Which RBA does the source give for N#C[Se]CCCCCC(=O)Nc1ccc(C2=C(c3ccc(O)cc3)C3CC(S(=O)(=O)Oc4ccc(Br)cc4)C2O3)cc1 (configuration not stated) here?
A: 0.31%

Q: With N#C[Se]CCCCCC(=O)Nc1ccc(C2=C(c3ccc(O)cc3)C3CC(S(=O)(=O)Oc4cccc(Cl)c4)C2O3)cc1 (configuration not stated) as the molecule, how does the RBA read?
A: 4.08%

Q: With N#C[Se]CCCCCC(=O)Nc1ccc(C2=C(c3ccc(O)cc3)C3CC(S(=O)(=O)Oc4cccc(O)c4)C2O3)cc1 (configuration not stated) as the molecule, how does the RBA read?
A: 14.2%

biological target: Estrogen receptor beta (Homo sapiens) (UniProt Q92731); assay: Binding affinity to human ERbeta assessed as relative binding affinity incubated under vibration for 1 min followed by 2 hrs incubation under dark condition by fluorescence polarization assay relative to estradiol; conditions: time 121.0 min
Sequence (Q92731 whole entry): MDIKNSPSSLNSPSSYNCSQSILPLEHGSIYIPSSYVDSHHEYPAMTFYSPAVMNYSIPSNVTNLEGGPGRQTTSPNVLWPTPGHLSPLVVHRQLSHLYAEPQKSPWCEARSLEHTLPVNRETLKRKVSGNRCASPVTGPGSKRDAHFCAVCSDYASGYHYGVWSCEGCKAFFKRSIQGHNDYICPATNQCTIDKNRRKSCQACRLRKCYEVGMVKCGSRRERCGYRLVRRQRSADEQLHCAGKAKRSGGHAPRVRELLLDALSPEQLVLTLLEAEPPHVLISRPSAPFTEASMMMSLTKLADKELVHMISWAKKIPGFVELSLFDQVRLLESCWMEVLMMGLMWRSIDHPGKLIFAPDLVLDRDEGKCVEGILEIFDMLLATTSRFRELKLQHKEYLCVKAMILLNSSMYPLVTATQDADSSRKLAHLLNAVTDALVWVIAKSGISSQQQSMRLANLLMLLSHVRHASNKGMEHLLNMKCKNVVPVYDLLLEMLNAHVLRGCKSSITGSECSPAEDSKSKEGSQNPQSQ

Q: For Cc1ccccc1OS(=O)(=O)C1CC2OC1C(c1ccc(NC(=O)CCCCC[Se]C#N)cc1)=C2c1ccc(O)cc1 (configuration not stated), which RBA is on record?
A: 3.12%

Q: Which RBA does the source give for N#C[Se]CCCCCC(=O)Nc1ccc(C2=C(c3ccc(O)cc3)C3CC(S(=O)(=O)Oc4cccc(C(F)(F)F)c4)C2O3)cc1 (configuration not stated) here?
A: 0.3%

Q: With N#C[Se]CCCCCC(=O)Nc1ccc(C2=C(c3ccc(O)cc3)C3CC(S(=O)(=O)Oc4cccc5ccccc45)C2O3)cc1 (configuration not stated) as the molecule, how does the RBA read?
A: 9%

Q: Which RBA does the source give for N#C[Se]CCCCCC(=O)Nc1ccc(C2=C(c3ccc(O)cc3)C3CC(S(=O)(=O)Oc4ccc(Br)cc4)C2O3)cc1 (configuration not stated) here?
A: 3.48%

Q: For N#C[Se]CCCCCC(=O)Nc1ccc(C2=C(c3ccc(O)cc3)C3CC(S(=O)(=O)Oc4cccc(Cl)c4)C2O3)cc1 (configuration not stated), which RBA is on record?
A: 0.1%

Q: For N#C[Se]CCCCCC(=O)Nc1ccc(C2=C(c3ccc(O)cc3)C3CC(S(=O)(=O)Oc4cccc(O)c4)C2O3)cc1 (configuration not stated), which RBA is on record?
A: 0.91%

species: Homo sapiens; assay: Selectivity ratio of relative binding affinity for human ERalpha to relative binding affinity to human ERbeta; conditions: not given

Q: With Cc1ccccc1OS(=O)(=O)C1CC2OC1C(c1ccc(NC(=O)CCCCC[Se]C#N)cc1)=C2c1ccc(O)cc1 (configuration not stated) as the molecule, how does the Selectivity ratio read?
A: 4.53

Q: For N#C[Se]CCCCCC(=O)Nc1ccc(C2=C(c3ccc(O)cc3)C3CC(S(=O)(=O)Oc4cccc(C(F)(F)F)c4)C2O3)cc1 (configuration not stated), which Selectivity ratio is on record?
A: 0.57

Q: With N#C[Se]CCCCCC(=O)Nc1ccc(C2=C(c3ccc(O)cc3)C3CC(S(=O)(=O)Oc4cccc5ccccc45)C2O3)cc1 (configuration not stated) as the molecule, how does the Selectivity ratio read?
A: 1.72

Q: Which Selectivity ratio does the source give for N#C[Se]CCCCCC(=O)Nc1ccc(C2=C(c3ccc(O)cc3)C3CC(S(=O)(=O)Oc4ccc(Br)cc4)C2O3)cc1 (configuration not stated) here?
A: 0.09

Q: With N#C[Se]CCCCCC(=O)Nc1ccc(C2=C(c3ccc(O)cc3)C3CC(S(=O)(=O)Oc4cccc(Cl)c4)C2O3)cc1 (configuration not stated) as the molecule, how does the Selectivity ratio read?
A: 40.8

Q: Which Selectivity ratio does the source give for N#C[Se]CCCCCC(=O)Nc1ccc(C2=C(c3ccc(O)cc3)C3CC(S(=O)(=O)Oc4cccc(O)c4)C2O3)cc1 (configuration not stated) here?
A: 15.6

tested on: MCF7; assay: Antiproliferative activity against ERalpha positive human MCF7 cells assessed as inhibition of cell proliferation incubated for 72 hrs by CCK8 assay; format: functional, cell-based; conditions: MCF7, 72 h

Q: With Cc1ccccc1OS(=O)(=O)C1CC2OC1C(c1ccc(NC(=O)CCCCC[Se]C#N)cc1)=C2c1ccc(O)cc1 (configuration not stated) as the molecule, how does the IC50 read?
A: 0.62 µM

Q: For N#C[Se]CCCCCC(=O)Nc1ccc(C2=C(c3ccc(O)cc3)C3CC(S(=O)(=O)Oc4cccc(C(F)(F)F)c4)C2O3)cc1 (configuration not stated), which IC50 is on record?
A: 0.57 µM

Q: Which IC50 does the source give for N#C[Se]CCCCCC(=O)Nc1ccc(C2=C(c3ccc(O)cc3)C3CC(S(=O)(=O)Oc4cccc5ccccc45)C2O3)cc1 (configuration not stated) here?
A: 2.43 µM

Q: For N#C[Se]CCCCCC(=O)Nc1ccc(C2=C(c3ccc(O)cc3)C3CC(S(=O)(=O)Oc4ccc(Br)cc4)C2O3)cc1 (configuration not stated), which IC50 is on record?
A: 1.85 µM

Q: Which IC50 does the source give for N#C[Se]CCCCCC(=O)Nc1ccc(C2=C(c3ccc(O)cc3)C3CC(S(=O)(=O)Oc4cccc(Cl)c4)C2O3)cc1 (configuration not stated) here?
A: 0.7 µM

Q: Which IC50 does the source give for N#C[Se]CCCCCC(=O)Nc1ccc(C2=C(c3ccc(O)cc3)C3CC(S(=O)(=O)Oc4cccc(O)c4)C2O3)cc1 (configuration not stated) here?
A: 1.29 µM

tested on: T47D; assay: Antiproliferative activity against ERalpha positive human T47D cells assessed as inhibition of cell proliferation incubated for 72 hrs by CCK8 assay; format: functional, cell-based; conditions: not given

Q: For Cc1ccccc1OS(=O)(=O)C1CC2OC1C(c1ccc(NC(=O)CCCCC[Se]C#N)cc1)=C2c1ccc(O)cc1 (configuration not stated), which IC50 is on record?
A: 2.23 µM

Q: With N#C[Se]CCCCCC(=O)Nc1ccc(C2=C(c3ccc(O)cc3)C3CC(S(=O)(=O)Oc4cccc(C(F)(F)F)c4)C2O3)cc1 (configuration not stated) as the molecule, how does the IC50 read?
A: > 31 µM

Q: Which IC50 does the source give for N#C[Se]CCCCCC(=O)Nc1ccc(C2=C(c3ccc(O)cc3)C3CC(S(=O)(=O)Oc4cccc5ccccc45)C2O3)cc1 (configuration not stated) here?
A: 1.71 µM

Q: For N#C[Se]CCCCCC(=O)Nc1ccc(C2=C(c3ccc(O)cc3)C3CC(S(=O)(=O)Oc4ccc(Br)cc4)C2O3)cc1 (configuration not stated), which IC50 is on record?
A: 120 µM

Q: For N#C[Se]CCCCCC(=O)Nc1ccc(C2=C(c3ccc(O)cc3)C3CC(S(=O)(=O)Oc4cccc(Cl)c4)C2O3)cc1 (configuration not stated), which IC50 is on record?
A: 4.09 µM

Q: With N#C[Se]CCCCCC(=O)Nc1ccc(C2=C(c3ccc(O)cc3)C3CC(S(=O)(=O)Oc4cccc(O)c4)C2O3)cc1 (configuration not stated) as the molecule, how does the IC50 read?
A: > 31 µM

tested on: not listed separately; assay: Cytotoxicity against human MCF-10A cells assessed as inhibition of cell proliferation incubated for 72 hrs by CCK8 assay; format: toxicity, cell-based; conditions: not given

Q: For Cc1ccccc1OS(=O)(=O)C1CC2OC1C(c1ccc(NC(=O)CCCCC[Se]C#N)cc1)=C2c1ccc(O)cc1 (configuration not stated), which IC50 at 72 h is on record?
A: 10.2 µM

Q: For N#C[Se]CCCCCC(=O)Nc1ccc(C2=C(c3ccc(O)cc3)C3CC(S(=O)(=O)Oc4cccc(C(F)(F)F)c4)C2O3)cc1 (configuration not stated), which IC50 at 72 h is on record?
A: 53.6 µM

Q: With N#C[Se]CCCCCC(=O)Nc1ccc(C2=C(c3ccc(O)cc3)C3CC(S(=O)(=O)Oc4cccc5ccccc45)C2O3)cc1 (configuration not stated) as the molecule, how does the IC50 at 72 h read?
A: 13.9 µM

Q: With N#C[Se]CCCCCC(=O)Nc1ccc(C2=C(c3ccc(O)cc3)C3CC(S(=O)(=O)Oc4ccc(Br)cc4)C2O3)cc1 (configuration not stated) as the molecule, how does the IC50 at 72 h read?
A: 18.6 µM

Q: For N#C[Se]CCCCCC(=O)Nc1ccc(C2=C(c3ccc(O)cc3)C3CC(S(=O)(=O)Oc4cccc(Cl)c4)C2O3)cc1 (configuration not stated), which IC50 at 72 h is on record?
A: 29.7 µM

Q: With N#C[Se]CCCCCC(=O)Nc1ccc(C2=C(c3ccc(O)cc3)C3CC(S(=O)(=O)Oc4cccc(O)c4)C2O3)cc1 (configuration not stated) as the molecule, how does the IC50 at 72 h read?
A: > 60 µM

tested on: not listed separately; assay: Selectivity index, ratio of IC50 for cytotoxicity against human MCF-10A cells to IC50 for antiproliferative activity against human MCF7 cells; format: toxicity, cell-based; conditions: MCF-10A cells and MCF7 cells, read-out: Ratio IC50

Q: For Cc1ccccc1OS(=O)(=O)C1CC2OC1C(c1ccc(NC(=O)CCCCC[Se]C#N)cc1)=C2c1ccc(O)cc1 (configuration not stated), which selectivity ratio is on record?
A: 16.5

Q: With N#C[Se]CCCCCC(=O)Nc1ccc(C2=C(c3ccc(O)cc3)C3CC(S(=O)(=O)Oc4cccc(C(F)(F)F)c4)C2O3)cc1 (configuration not stated) as the molecule, how does the selectivity ratio read?
A: 94.1

Q: For N#C[Se]CCCCCC(=O)Nc1ccc(C2=C(c3ccc(O)cc3)C3CC(S(=O)(=O)Oc4cccc5ccccc45)C2O3)cc1 (configuration not stated), which selectivity ratio is on record?
A: 5.72

Q: Which selectivity ratio does the source give for N#C[Se]CCCCCC(=O)Nc1ccc(C2=C(c3ccc(O)cc3)C3CC(S(=O)(=O)Oc4ccc(Br)cc4)C2O3)cc1 (configuration not stated) here?
A: 10.1

Q: With N#C[Se]CCCCCC(=O)Nc1ccc(C2=C(c3ccc(O)cc3)C3CC(S(=O)(=O)Oc4cccc(Cl)c4)C2O3)cc1 (configuration not stated) as the molecule, how does the selectivity ratio read?
A: 42.4

Q: With N#C[Se]CCCCCC(=O)Nc1ccc(C2=C(c3ccc(O)cc3)C3CC(S(=O)(=O)Oc4cccc(O)c4)C2O3)cc1 (configuration not stated) as the molecule, how does the selectivity ratio read?
A: > 46.5
